Measured values reported in patent publication US6207675A, “Pyrrole derivatives, their preparation and pharmaceutical compositions containing them” (Rhone-Poulenc Rorer S.A., priority 1996, dated 2001).
Values after ≈ are worked out from the molar mass of the structure shown.

Assays:
[1] = tested on: human cytomegalovirus Davis strain; assay: Antiviral activity on human cytomegalovirus, Davis strain (protection from virus-induced cytopathogenic effect); type: cell-based; details: for IC50: Human betaherpesvirus 5, Davis strain, read-out: IC50 (concentration necessary to inhibit 50% of the cytopathogenic effect induced by the virus); for IC50 (concentration necessary to inhibit 50% of the cytopathogenic effect induced by the virus): Davis strain
Description: (§1) Infect. Dis., 10, 1026-1033 (1991); or in the technique described by Andrei et al., Eur. J. Clin. Microbiol. Infect. Dis., 11, 143-151 (1992), Reymen et al., Antiviral Res., 28, 343-357 (1995).
(§2) The technique used consists in the measurement of the cytopathogenic effect of the herpesvirus and of its protection by the use of products of general formula (I). The antiviral activity is assessed by measuring the IC50 (concentration necessary to inhibit 50% of the cytopathogenic effect induced by the virus).
(§3) The activity of the products according to the invention on the human cytomegalovirus has been studied on the Davis and AD-169 strains.

[2] = tested on: human cytomegalovirus AD-169 strain; assay: Antiviral activity on human cytomegalovirus, AD-169 strain (protection from virus-induced cytopathogenic effect); type: cell-based
Description: as §1, §2, §3

IC50 [1]	IC50 (concentration necessary to inhibit 50% of the cytopathogenic effect induced by the virus) ([1]; listed as 7 [(R,S) form])	IC50 (concentration necessary to inhibit 50% of the cytopathogenic effect induced by the virus) [1]	IC50 (concentration necessary to inhibit 50% of the cytopathogenic effect induced by the virus) ([2]; AD-169 strain)	IC50 ([2]; Human betaherpesvirus 5, AD169, AD-169 strain, read-out: IC50 (concentration necessary to inhibit 50% of the cytopathogenic effect induced by the virus))	SMILES
0.5 µg/mL (≈ 1.62 µM)					NC(=O)c1c(Cl)c(-c2cccnc2)n2c1C=C(Cl)CC2 [Example 1, 2,7-dichloro-3-pyridin-3-yl-5,6-dihydroindolizine-1-carboxamide]
0.027 µg/mL (≈ 0.0925 µM)	0.015 µg/mL				NC(=O)c1c(Cl)c(-c2cccnc2)n2c1C(O)CCC2 (racemic) [Example 7, (R,S)-2-chloro-8-hydroxy-3-pyridin-3-yl-5,6,7,8-tetrahydroindolizine-1-carboxamide]
0.43 µg/mL (≈ 1.42 µM)		0.72 µg/mL	0.86 µg/mL	0.5 µg/mL (≈ 1.65 µM)	COC1=Cc2c(C(N)=O)c(Cl)c(-c3cccnc3)n2CC1 [Example 2, 2-chloro-7-methoxy-3-pyridin-3-yl-5,6-dihydroindolizine-1-carboxamide]
